Columns and labels:
Assay in all cases: MIC of clinical antifungals, CLSI M38-A2 broth microdilution
Type in all cases: cell-based
[1] = system: Candida parapsilosis ATCC 22019; conditions: Lodderomyces parapsilosis; for MIC50 / MIC80: ATCC22019, RPMI-1640; for MIC: ATCC22019, RPMI-1640, read-out: MIC100
Procedure: (§1) Two Candida spp. strains (C. krusei ATCC6258 & C. parapsilosis ATCC22019) and Exophiala jeanselmei reference strain NCPF2377 were also tested. These acted as quality control strains. Flat-bottomed Nunc Plates were prepared containing a serial doubling dilution of antifungals at 2× final concentration. […] These were incubated at 35° C. and read at 24 h and 48 h (Candida spp.) or 120 h (Exophiala spp.) on a BioTek plate reader at 530 nm. • 7. Culture of Candida spp. grown on Sabouraud dextrose agar slope overnight at 30° C. • 8. Exophiala cultures grown on potato dextrose agar slope for 6 days at 35° C. • 9. Cultures were removed from incubator and 2 ml sterile 0.15M NaCl was added to the overnight culture and spore and hyphal suspensions were harvested from the surface of the agar and transferred to a sterile plastic bijou tube. • a. Exophiala spp. cultures were allowed to rest for up to 10 min, allowing hyphae to settle to the bottom. The top layers of spores were transferred to a sterile plastic bijou tube. • 10. […] This is continued to A12 where 100 μl is removed and discarded. • f. This dilution series was repeated in rows B-D for the remaining 3 cultures • g. 0.5 McFarland Standard added to wells E1-E3 • h. Plate read at OD530 on BioTek. • i. Concentration of cells required will be the one that is the equivalent to the 0.5 McFarland Standard • 11. […] • 7. The highest final concentration on the plate will be as described in layouts at the end of the protocol. […] Wells A1-A3 and A7-A9 are prepared by the addition of 200 μl highest concentration of compound to the wells. • 10. All other wells contain 100 μl sterile dH2O. • 11. Serial dilutions are carried out from A1-A3 to B1-B3 whereby 100 μl is removed from A1-A3 and placed into B1-B3 and mixed well by pipetting. Then take 100 μl B1-B3 and place in C1-C3 and mix well. Take 100 μl from C1-C3 and add to D1-D3 and mix well. […] At H1-[…] μl is removed and added to A4-A6. The dilution series is carried down the plate in the same manner to wells G4-G6 where a final 100 μl is removed and discarded. H4-H6 contain water alone and will be untreated controls. • 12. The same procedure is repeated for the wells in columns A7-A9 and A10-A12. See plate layout at bottom of page. Inoculating Plates with Candida spp./Exophiala spp. • 5. […] Plates are read in the BioTek at OD530 nm. • 7. Plates are then placed in a plastic box which contains either a Petri dish of water. The box is sealed and incubated at 35° C. (Exophiala spp.) or 30° C. (Candida spp.). The presence of the water in the dish or on the tissue provides and environment of relatively high humidity. • 8. The OD530 of the Candida spp. plates are read after 24 h and 48 h, while the slower growing Exophiala spp. plates are read after 96 h and 120 h. • 9. Raw BioTek data is transformed using Gen5 software and represented graphically using GraphPad Prism 4 software and MICs determined.

[2] = system: Exophiala jeanselmei NCPF 2377; conditions: NCPF2377, RPMI-1640, 35° C.; for MIC: read-out: MIC100
Procedure: as §1

[3] = system: Exophiala dermatitidis CA01; conditions: RPMI-1640, 35° C.; for MIC: read-out: MIC100
Procedure: as §1

[4] = system: Candida krusei ATCC 6258; conditions: Pichia kudriavzevii; for MIC50 / MIC80: ATCC6258, RPMI-1640; for MIC: ATCC6258, RPMI-1640, read-out: MIC100
Procedure: as §1

| SMILES | MIC50 [1] | MIC80 [1] | MIC [1] | MIC50 [2] | MIC80 [2] | MIC [2] | MIC50 [3] | MIC80 [3] | MIC [3] | MIC50 [4] | MIC80 [4] | MIC [4] |
| --- | --- | --- | --- | --- | --- | --- | --- | --- | --- | --- | --- | --- |
| CC[C@H](C)C[C@H](C)CCCCCCCCC(=O)N[C@H]1C[C@@H](O)[C@@H](NCCN)NC(=O)[C@@H]2[C@@H](O)CCN2C(=O)[C@H]([C@H](O)CCN)NC(=O)[C@H]([C@H](O)[C@@H](O)c2ccc(O)cc2)NC(=O)[C@@H]2C[C@@H](O)CN2C(=O)[C@H]([C@@H](C)O)NC1=O [Caspofungin] | 1 µg/mL | 2 µg/mL | 64 µg/mL | 0.125 µg/mL | 64 µg/mL | > 64 µg/mL | 16 µg/mL | 32 µg/mL | 32 µg/mL | 0.5 µg/mL | 1 µg/mL | 1 µg/mL |
| OC(Cn1cncn1)(Cn1cncn1)c1ccc(F)cc1F [Fluconazole] | 0.5 µg/mL | 1 µg/mL | 3.9 µg/mL | 250 µg/mL | 500 µg/mL | 1000 µg/mL | 250 µg/mL | 500 µg/mL | 500 µg/mL | 31.2 µg/mL | 62.5 µg/mL | 62.5 µg/mL |
| CCC(C)n1ncn(-c2ccc(N3CCN(c4ccc(OCC5COC(Cn6cncn6)(c6ccc(Cl)cc6Cl)O5)cc4)CC3)cc2)c1=O (stereo not drawn) [Itraconazole] | 0.008 µg/mL | 0.016 µg/mL | 0.125 µg/mL | 0.125 µg/mL | 0.25 µg/mL | 0.25 µg/mL | 2 µg/mL | > 32 µg/mL | > 32 µg/mL | 0.004 µg/mL | 0.125 µg/mL | 0.25 µg/mL |

— patent US20160102052A1, “Use of Cysteamine in Treating Infections caused by Yeasts/Moulds” (priority 2014, published 2016)
